The values that follow come from patent US8999322B2, “Compositions and methods for modulating hemostasis” (The United States of America National Institutes of Health …, priority 2005, dated 2015).

One experiment addresses T1, mIIaTAT (Homo sapiens, UniProt P00734, E366T/I364T/V365A).
T1 construct: made in house; host or cells: IITAT from HEK293 cells, cleaved in the reaction by prothrombinase
As to the kind of experiment: DAPA binding to zymogen-like mIIaTAT (interpretation of rescue data). The following applies: possible interpretation of rescue findings. The text has this:
Ligands that bind with high affinity to the proteinase are established to enhance the ability of the zymogen to adopt a proteinase-like configuration (13, 20, 23). Our findings are consistent with two possible interpretations. […] Alternatively, DAPA could act by selectively binding and favoring the proteinase in an equilibrium between zymogen-like and proteinase-like forms of mIIaTAT in which the zymogen-like state is highly favored.

The target in the next experiment is mIIa. To be noted: read-out: Kd of DAPA for mIIa; cited from earlier work.
The target of a further experiment is T2, IIaWT (Homo sapiens, UniProt P00734).
T2 construct: yielding mIIa as the sole intermediate, followed by cleavage at Arg-271 to produce IIa
The experiment is described as follows: Binding of DAPA to thrombin variants (fluorescence). To be noted: fluorescence studies, data not shown. How it is done: Front face fluorescence measurements were performed in a plate reader (SpectraMax Gemini, Molecular Devices) by using black polystyrene plates (no. 3650, Corning). Reaction mixtures (100 μl) prepared in assay buffer contained increasing concentrations of DAPA (24 concentrations, 0-100 μM) with no addition, 0.5 μM IIa, or 0.5 μM IIaTAT. […] Subtraction of the intensity measured with DAPA alone yielded the fluorescence change associated with the binding of DAPA to Ha or IIaTAT. Fluorescence data were analyzed as described in ref 7 to infer the equilibrium dissociation constant.

Another experiment has as its target IIa. To be noted: read-out: Kd of DAPA for IIa; cited from earlier work.
For the next experiment, the target named is T3, IITAT (Homo sapiens, UniProt P00734, E366T/I364T/V365A).
T3 construct: made in house
As to the kind of experiment: Rescue of IITAT cleavage at Arg-271 by DAPA (areas under mIIa progress curves). Type of experiment: biochemical. The following applies: DAPA 0-300 μM; 5.4 μM IITAT, 0.8 nM prothrombinase; read-out: DAPA concentration for half-maximal effect on rescue of second half-reaction in IITAT cleavage. Here is the method:
Reaction mixtures prepared in assay buffer and maintained at 25° C., contained 5.4 μM IIWT, IITAT, or IIQ155,Q284, 20 μM PCPS, 28 nM Va, and indicated concentrations of DAPA. Cleavage was initiated by the addition of 0.8 nM Xa and samples (15 μl), withdrawn at the indicated times, were quenched by mixing with an equal volume of 2 NuPAGE LDS sample buffer (Invitrogen) containing 50 mM EDTA. Quenched samples were treated with 71 mM DTT, heated at 89° C. for 5 min, and subjected to electrophoresis (4.2 μg protein per lane) by using NuPAGE 4-12% gels and Mes running buffer (Invitrogen). Protein bands visualized by staining with Coomassie brilliant blue R-250 were imaged and analyzed by quantitative densitometry by using procedures described in detail in refs. 4 and 15. Analysis of the cleavage of FPR-IIQ320 and NaSCN-treated IIQ320 was performed as described above except that reaction mixtures contained 5.8 μM prothrombin variant, 50 μM PCPS, 60 nM Va, 40 μM DAPA, and 1 nM Xa.
Effects of DAPA were assessed by integrating areas under the progress curves for mIIa formation and its disappearance for the different prothrombin variants (FIG. 5). Normalized areas obtained in the activation of IIWT or IIQ155,Q284 were identical and were independent of DAPA varied between 0 and 300 μM for IIQ155,Q284 or 20 and 300 μM for IIWT. […]

SMILES strings stand for the structures.

A word on the Kd: it is the equilibrium constant for the complex coming apart. With `CCC1CCN(C(=O)C(CCCNC(=N)N)NS(=O)(=O)c2cccc3c(N(C)C)cccc23)CC1` [DAPA, dansyl-L-arginine N-(3-ethyl-1,5-pentanediyl)amide], the Kd at mIIaTAT is 30 µM; at mIIa, roughly 1 nM; on IIa, roughly 1 nM. In addition, the “equilibrium dissociation constant of DAPA for IIaWT” value at IIaWT is reported as “nanomolar”. Also, the EC50 at IITAT is roughly 20 µM.
